Test results as given in patent US20030027141A1, “Combinatorial oligonucleotide PCR: a method for rapid, global expression analysis” (Board of Regents, The University of Texas System, priority 1999, published 2003).

Key:
[1] = system: HME87 line of normal human mammary epithelial cells; test: Cell cycle parameters after BPDE treatment; format: cell-based
Experimental: Data for several genes whose expression did change at one or more time points is listed in Table 11 with two prominent examples shown in FIG. 20. The most dramatic change was in the expression of the transcription factor ATF3, which increased 8-9 fold at 4 and 10 h, then dropped to a 2.4-fold increase at 24 h. Changes in ATF3 expression in response to damage induced by BPDE or related compounds have not previously been described, and it will be very interesting to determine both the mechanism and the consequences of this induction. The p21/WAF1 gene, a downstream target of p53, is a mediator of G1 arrest in response to DNA damage (Levine, 1997). […] Thus, the COP analyses performed in this system have given a variety of clues concerning mechanisms operative in cells soon after BPDE treatment.

[2] = system: HME87 line of normal human mammary epithelial cells; conditions: 30 min BPDE treatment; for at least 48 h
[3] = system: HME87 line of normal human mammary epithelial cells; test: DNA damage in BPDE-treated cells; format: cell-based; conditions: 30 min BPDE treatment
Experimental: Control cultures were treated with tetrahydrofuran only.

[4] = system: HME87 line of normal human mammary epithelial cells; test: COP analysis of gene expression after carcinogen (BPDE) treatment; format: cell-based
[5] = at one or more time points after BPDE treatment

In the case of `OC1c2cc3ccc4cccc5ccc(c2C2OC2C1O)c3c45` (racemic) [BPDE, ±7r,8t-dihydroxy-9,10t-epoxy-7,8,9,10-tetrahydro-benzo[a]pyrene], the G1 arrest ([1]; 4 and 10 h after BPDE treatment) is reported as “no G1 arrest”, the G1 arrest ([1]; by 24 h after BPDE treatment) is reported as “appear to be a G1 arrest” and the toxicity of treatment [2] is reported as “not demonstrably toxic”. The “DNA damage in the treated cells” value [3] was “induces a high level of DNA damage”, the “ACTB expression E/C” value ([4]; 4 h after BPDE treatment) was 1.1 ± 0.2 and the “ATF3 expression E/C” value ([4]; 4 h after BPDE treatment) was 7.8 ± 4.0. For the same compound, the “Beclin expression E/C” value ([4]; 4 h after BPDE treatment) was 2.1 ± 1.4, the “CEBPE expression E/C” value ([4]; 4 h after BPDE treatment) was 0.9 ± 0.3 and the “GADD45 expression E/C” value ([4]; 4 h after BPDE treatment) was 2.1 ± 0.7. The “LMNA expression E/C” value ([4]; 4 h after BPDE treatment) was 0.7 ± 0.2, the “RPL23a expression E/C” value ([4]; 4 h after BPDE treatment) was 0.6 ± 0.1 and the “RPL30 expression E/C” value ([4]; 4 h after BPDE treatment) was 0.8 ± 0.1. The “RPL35 expression E/C” value ([4]; 4 h after BPDE treatment) was 1.2 ± 0.3, the “RPP1 expression E/C” value ([4]; 4 h after BPDE treatment) was 1.4 ± 0.1 and the “RPS7 expression E/C” value ([4]; 4 h after BPDE treatment) was 1.1 ± 0.2. The “RPS15a expression E/C” value ([4]; 4 h after BPDE treatment) was 1.0 ± 0.3, the “RPS26 expression E/C” value ([4]; 4 h after BPDE treatment) was 1.2 ± 0.3 and the “RPS29 expression E/C” value ([4]; 4 h after BPDE treatment) was 1.1 ± 0.2. For the same compound, the “TP53 expression E/C” value ([4]; 4 h after BPDE treatment) was 1.1 ± 0.4, the “p21 expression E/C” value ([4]; 4 h after BPDE treatment) was 1.0 ± 0.1 and the “RPS27 expression E/C” value ([4]; 4 h after BPDE treatment, E=BPDE, C=solvent only) was 0.9 ± 0.3. The “ACTB expression E/C” value ([4]; 10 h after BPDE treatment) was 0.9 ± 0.2, the “ATF3 expression E/C” value ([4]; 10 h after BPDE treatment) was 9.2 ± 3.9 and the “BTF3 expression E/C” value ([4]; 10 h after BPDE treatment) was 1.0 ± 0.2. For the same compound, the “Beclin expression E/C” value ([4]; 10 h after BPDE treatment) was 2.0 ± 1.1, the “GADD45 expression E/C” value ([4]; 10 h after BPDE treatment) was 1.9 ± 0.7 and the “LMNA expression E/C” value ([4]; 10 h after BPDE treatment) was 1.1 ± 0.3. For the same compound, the “PGK expression E/C” value ([4]; 10 h after BPDE treatment) was 1.0 ± 0.2, the “RPL23a expression E/C” value ([4]; 10 h after BPDE treatment) was 1.1 ± 0.3 and the “RPL30 expression E/C” value ([4]; 10 h after BPDE treatment) was 1.0 ± 0.1. The “RPL35 expression E/C” value ([4]; 10 h after BPDE treatment) was 1.1 ± 0.4, the “RPP1 expression E/C” value ([4]; 10 h after BPDE treatment) was 1.0 ± 0.4 and the “RPS7 expression E/C” value ([4]; 10 h after BPDE treatment) was 1.4 ± 0.5. The “RPS15a expression E/C” value ([4]; 10 h after BPDE treatment) was 1.4 ± 0.6, the “RPS16 expression E/C” value ([4]; 10 h after BPDE treatment) was 0.8 ± 0.1 and the “RPS26 expression E/C” value ([4]; 10 h after BPDE treatment) was 1.3 ± 0.5. For the same compound, the “RPS27 expression E/C” value ([4]; 10 h after BPDE treatment) was 1.2 ± 0.4, the “RPS29 expression E/C” value ([4]; 10 h after BPDE treatment) was 1.3 ± 0.6 and the “TP53 expression E/C” value ([4]; 10 h after BPDE treatment) was 0.9 ± 0.1. For the same compound, the “p21 expression E/C” value ([4]; 10 h after BPDE treatment) was 1.1 ± 0.2, the “ACTB expression E/C” value ([4]; 24 h after BPDE treatment) was 1.3 ± 0.4 and the “ATF3 expression E/C” value ([4]; 24 h after BPDE treatment) was 2.4 ± 0.7. For the same compound, the “BTF3 expression E/C” value ([4]; 24 h after BPDE treatment) was 0.9 ± 0.2, the “CEBPE expression E/C” value ([4]; 24 h after BPDE treatment) was 1.0 ± 0.3 and the “GADD45 expression E/C” value ([4]; 24 h after BPDE treatment) was 0.8 ± 0.4. The “IMPD expression E/C” value ([4]; 24 h after BPDE treatment) was 0.8 ± 0.2, the “LMNA expression E/C” value ([4]; 24 h after BPDE treatment) was 0.9 ± 0.3 and the “MYC expression E/C” value ([4]; 24 h after BPDE treatment) was 1.2 ± 0.5. For the same compound, the “NFKB expression E/C” value ([4]; 24 h after BPDE treatment) was 1.5 ± 0.4, the “PGK expression E/C” value ([4]; 24 h after BPDE treatment) was 1.1 ± 0.2 and the “RPL23a expression E/C” value ([4]; 24 h after BPDE treatment) was 1.0 ± 0.2. The “RPL30 expression E/C” value ([4]; 24 h after BPDE treatment) was 1.0 ± 0.2, the “RPL35 expression E/C” value ([4]; 24 h after BPDE treatment) was 1.2 ± 0.6 and the “RPP1 expression E/C” value ([4]; 24 h after BPDE treatment) was 1.7 ± 1.0. For the same compound, the “RPS7 expression E/C” value ([4]; 24 h after BPDE treatment) was 1.7 ± 0.8, the “RPS15a expression E/C” value ([4]; 24 h after BPDE treatment) was 1.2 ± 0.3 and the “RPS16 expression E/C” value ([4]; 24 h after BPDE treatment) was 0.9 ± 0.2. The “RPS26 expression E/C” value ([4]; 24 h after BPDE treatment) was 1.5 ± 0.6, the “RPS27 expression E/C” value ([4]; 24 h after BPDE treatment) was 0.9 ± 0.2 and the “RPS29 expression E/C” value ([4]; 24 h after BPDE treatment) was 1.7 ± 1.2. For the same compound, the “SL1 expression E/C” value ([4]; 24 h after BPDE treatment) was 1.0 ± 0.3, the “TP53 expression E/C” value ([4]; 24 h after BPDE treatment) was 0.8 ± 0.3 and the “p21 expression E/C” value ([4]; 24 h after BPDE treatment) was 2.3 ± 0.7. The “increase in expression of transcription factor ATF3” value ([4]; at 4 and 10 h after BPDE treatment) was 8-9 fold, the “increase in expression of transcription factor ATF3” value ([4]; at 24 h after BPDE treatment) was 2.4 fold and the “increase of p21/WAF1 gene expression” value ([4]; at 24 h after BPDE treatment) was “about 2 fold”. For the same compound, the “expression of beclin (protein related to apoptosis)” value [4, 5] was “upregulated”, the “expression of transcription factor CP2” value [4, 5] was “upregulated” and the “induction of p21/WAF1 gene” value ([4]; early times after BPDE treatment) was “not induced”. For the same compound, the “expression of the majority of over 450 genes analyzed” value ([4]; one or more time points after BPDE treatment) was “no significant changes in expression”.
